Experimental data as given in ChEMBL document CHEMBL1201862, “PubChem BioAssay data set” (2004).
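Assay format: 96-well plates, 48-hour exposure. GI50 marks 50% less growth.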 Activity calls are given as the source filed them. No stated cut-off is given here; in the data, active = GI50 up to about 1.1 µM and inactive = higher.

Experiments:
Assay in all cases: inhibition of tumour cell growth, NCI panel, 48 h
[1] = tested on: HCC 2998
[2] = tested on: Malme-3M
[3] = tested on: SNB-19
[4] = tested on: NCI/ADR-RES
[5] = tested on: UACC-257
[6] = tested on: MDA-MB-231
[7] = tested on: HOP-92
[8] = tested on: MCF7
[9] = tested on: NCI-H460
[10] = tested on: NCI-H522
[11] = tested on: COLO 205
[12] = tested on: K562
[13] = tested on: SK-MEL-28
[14] = tested on: IGROV-1
[15] = tested on: SK-OV-3
[16] = tested on: SK-MEL-2
[17] = tested on: SF-295
[18] = tested on: NCI-H226
[19] = tested on: RXF 393
[20] = tested on: OVCAR-5
[21] = tested on: TK-10
[22] = tested on: HT-29
[23] = tested on: A549
[24] = tested on: CCRF-CEM
[25] = tested on: ACHN
[26] = tested on: HCT-15
[27] = tested on: HL-60
[28] = tested on: M14
[29] = tested on: SW-620
[30] = tested on: BT-549
[31] = tested on: PC-3
[32] = tested on: SNB-75
[33] = tested on: RPMI-8226
[34] = tested on: KM12
[35] = tested on: SF-539
[36] = tested on: HOP-62
[37] = tested on: SK-MEL-5
[38] = tested on: 786-0
[39] = tested on: Hs-578T
[40] = tested on: SF-268
[41] = tested on: OVCAR-8
[42] = tested on: MDA-N
[43] = tested on: MOLT-4
[44] = tested on: UACC-62
[45] = tested on: OVCAR-4
[46] = tested on: SN12C
[47] = tested on: LOX IMVI
[48] = tested on: MDA-MB-435
[49] = tested on: A498
[50] = tested on: HCT-116
[51] = tested on: EKVX
[52] = tested on: U-251
[53] = tested on: CAKI-1
[54] = tested on: OVCAR-3
[55] = tested on: NCI-H23
[56] = tested on: DU-145
[57] = tested on: UO-31
[58] = tested on: SR
[59] = tested on: T47D

Cc1ccc(-c2c(C#N)c(-c3ccc(N(C)C)cc3)c(C#N)c(=O)n2NS(=O)(=O)c2ccccc2)cc1
GI50 [1]: 18.3 µM (inactive)
GI50 [2]: 87.9 µM (inactive)
GI50 [3]: 63.7 µM (inactive)
GI50 [4]: 39.4 µM (inactive)
GI50 [5]: > 100 µM (inactive)
GI50 [6]: > 100 µM (inactive)
GI50 [7]: > 100 µM (inactive)
GI50 [8]: 26.1 µM (inactive)
GI50 [9]: 18.1 µM (inactive)
GI50 [10]: 42.3 µM (inactive)
GI50 [11]: 40.8 µM (inactive)
GI50 [12]: 44.9 µM (inactive)
GI50 [13]: 45.9 µM (inactive)
GI50 [14]: 63.2 µM (inactive)
GI50 [15]: 62.1 µM (inactive)
GI50 [16]: 37.5 µM (inactive)
GI50 [17]: 23.1 µM (inactive)
GI50 [18]: > 100 µM (inactive)
GI50 [19]: 22.7 µM (inactive)
GI50 [20]: > 100 µM (inactive)
GI50 [21]: 92.3 µM (inactive)
GI50 [22]: 38.5 µM (inactive)
GI50 [23]: 36.5 µM (inactive)
GI50 [24]: 29.5 µM (inactive)
GI50 [25]: 42.7 µM (inactive)
GI50 [26]: 27.7 µM
GI50 [27]: 44.8 µM (inactive)
GI50 [28]: 25 µM (inactive)
GI50 [29]: 39.2 µM (inactive)
GI50 [30]: 37.2 µM (inactive)
GI50 [31]: 33.4 µM (inactive)
GI50 [32]: 37 µM (inactive)
GI50 [33]: 8.67 µM (inactive)
GI50 [34]: 31.3 µM (inactive)
GI50 [35]: 21.9 µM (inactive)
GI50 [36]: 46.2 µM (inactive)
GI50 [37]: 17.3 µM (inactive)
GI50 [38]: 22.9 µM (inactive)
GI50 [39]: 33.7 µM (inactive)
GI50 [40]: 79.3 µM (inactive)
GI50 [41]: 44.5 µM (inactive)
GI50 [42]: 45.9 µM (inactive)
GI50 [43]: 16.4 µM (inactive)
GI50 [44]: 30.8 µM (inactive)
GI50 [45]: 19.9 µM (inactive)
GI50 [46]: 55.7 µM (inactive)
GI50 [47]: 28 µM (inactive)
GI50 [48]: 43.7 µM (inactive)
GI50 [49]: 51.4 µM (inactive)
GI50 [50]: 30.7 µM (inactive)
GI50 [51]: 96.6 µM (inactive)
GI50 [52]: 47.9 µM (inactive)
GI50 [53]: 31.7 µM (inactive)

CC(C)CNCCc1ccccn1
GI50 [1]: > 100 µM (inactive)
GI50 [2]: > 100 µM (inactive)
GI50 [3]: > 100 µM (inactive)
GI50 [4]: > 100 µM (inactive)
GI50 [5]: > 100 µM (inactive)
GI50 [6]: > 100 µM (inactive)
GI50 [7]: > 100 µM (inactive)
GI50 [8]: > 100 µM (inactive)
GI50 [9]: > 100 µM (inactive)
GI50 [10]: > 100 µM (inactive)
GI50 [11]: > 100 µM (inactive)
GI50 [13]: > 100 µM (inactive)
GI50 [14]: > 100 µM (inactive)
GI50 [15]: > 100 µM (inactive)
GI50 [16]: > 100 µM (inactive)
GI50 [17]: > 100 µM (inactive)
GI50 [18]: > 100 µM (inactive)
GI50 [19]: > 100 µM (inactive)
GI50 [20]: > 100 µM (inactive)
GI50 [54]: > 100 µM (inactive)
GI50 [21]: > 100 µM (inactive)
GI50 [22]: > 100 µM (inactive)
GI50 [23]: > 100 µM (inactive)
GI50 [24]: > 100 µM (inactive)
GI50 [25]: > 100 µM (inactive)
GI50 [26]: > 100 µM
GI50 [27]: > 100 µM (inactive)
GI50 [28]: > 100 µM (inactive)
GI50 [29]: > 100 µM (inactive)
GI50 [30]: > 100 µM (inactive)
GI50 [31]: > 100 µM (inactive)
GI50 [32]: > 100 µM (inactive)
GI50 [55]: > 100 µM (inactive)
GI50 [34]: > 100 µM (inactive)
GI50 [36]: > 100 µM (inactive)
GI50 [37]: > 100 µM (inactive)
GI50 [56]: > 100 µM (inactive)
GI50 [38]: > 100 µM (inactive)
GI50 [39]: > 100 µM (inactive)
GI50 [40]: > 100 µM (inactive)
GI50 [41]: > 100 µM (inactive)
GI50 [42]: > 100 µM (inactive)
GI50 [57]: > 100 µM (inactive)
GI50 [44]: > 100 µM (inactive)
GI50 [45]: > 100 µM (inactive)
GI50 [46]: > 100 µM (inactive)
GI50 [47]: > 100 µM (inactive)
GI50 [48]: > 100 µM (inactive)
GI50 [49]: > 100 µM (inactive)
GI50 [50]: > 100 µM (inactive)
GI50 [51]: > 100 µM (inactive)
GI50 [52]: > 100 µM (inactive)
GI50 [53]: > 100 µM (inactive)

O=C(O)c1ccc([N+](=O)[O-])c(P(=O)(O)O)c1
GI50 [3]: > 100 µM (inactive)
GI50 [4]: > 100 µM (inactive)
GI50 [5]: > 100 µM (inactive)
GI50 [6]: > 100 µM (inactive)
GI50 [7]: > 100 µM (inactive)
GI50 [8]: > 100 µM (inactive)
GI50 [9]: > 100 µM (inactive)
GI50 [11]: > 100 µM (inactive)
GI50 [12]: > 100 µM (inactive)
GI50 [13]: > 100 µM (inactive)
GI50 [14]: > 100 µM (inactive)
GI50 [15]: > 100 µM (inactive)
GI50 [16]: > 100 µM (inactive)
GI50 [17]: > 100 µM (inactive)
GI50 [18]: > 100 µM (inactive)
GI50 [19]: > 100 µM (inactive)
GI50 [20]: > 100 µM (inactive)
GI50 [54]: > 100 µM (inactive)
GI50 [21]: > 100 µM (inactive)
GI50 [22]: > 100 µM (inactive)
GI50 [23]: > 100 µM (inactive)
GI50 [25]: > 100 µM (inactive)
GI50 [26]: > 100 µM
GI50 [27]: > 100 µM (inactive)
GI50 [58]: > 100 µM (inactive)
GI50 [28]: > 100 µM (inactive)
GI50 [29]: > 100 µM (inactive)
GI50 [30]: > 100 µM (inactive)
GI50 [31]: > 100 µM (inactive)
GI50 [55]: > 100 µM (inactive)
GI50 [33]: > 100 µM (inactive)
GI50 [34]: > 100 µM (inactive)
GI50 [35]: > 100 µM (inactive)
GI50 [36]: > 100 µM (inactive)
GI50 [37]: > 100 µM (inactive)
GI50 [56]: > 100 µM (inactive)
GI50 [38]: > 100 µM (inactive)
GI50 [41]: > 100 µM (inactive)
GI50 [42]: > 100 µM (inactive)
GI50 [59]: > 100 µM (inactive)
GI50 [57]: > 100 µM (inactive)
GI50 [43]: > 100 µM (inactive)
GI50 [44]: > 100 µM (inactive)
GI50 [45]: > 100 µM (inactive)
GI50 [46]: > 100 µM (inactive)
GI50 [47]: > 100 µM (inactive)
GI50 [48]: > 100 µM (inactive)
GI50 [49]: > 100 µM (inactive)
GI50 [50]: > 100 µM (inactive)
GI50 [51]: > 100 µM (inactive)
GI50 [52]: > 100 µM (inactive)
GI50 [53]: > 100 µM (inactive)
